Results on 39 molecules are retold here after PMC8620791, “Inhibitory Effects of Sulfonamide Derivatives on the β-Carbonic Anhydrase (MpaCA) from Malassezia pachydermatis, a Commensal, Pathogenic Fungus Present in Domestic Animals” (International Journal of Molecular Sciences, 2021).

The target of one assay is MgCA. Also on record: method as in PMID 31963335. The note with it: stopped-flow CO2 hydration; given for comparison; ref [26]; cited from earlier work.
For assay [1], the target named is T1, β-CA (MpaCA) from Malassezia pachydermatis (Malassezia pachydermatis, UniProt A0A0M8MPA4).
T1 sequence (A0A0M8MPA4 1-242): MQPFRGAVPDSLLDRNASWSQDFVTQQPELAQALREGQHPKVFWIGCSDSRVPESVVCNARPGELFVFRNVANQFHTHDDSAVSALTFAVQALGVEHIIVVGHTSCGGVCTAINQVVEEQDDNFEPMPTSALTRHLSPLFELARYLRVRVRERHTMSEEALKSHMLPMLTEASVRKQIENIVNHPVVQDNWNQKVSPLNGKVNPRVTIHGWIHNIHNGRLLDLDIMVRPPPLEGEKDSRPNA
Description: biochemical. The note with it: recombinant enzyme, stopped-flow CO2 hydration, mean from three assays, errors ±5–10%, 15 min preincubation.
Description: An applied photophysics stopped-flow instrument was used for assaying the CA-catalyzed CO2 hydration activity [49].
At least six measurements of the original 5–10% reaction were used to assess the initial velocity for each inhibitor. The uncatalyzed rates were identically determined and detracted from the total observed rates. Stock inhibitor solutions (10–100 mM) were prepared in distilled, deionized water, and dilutions up to 0.01 mM were performed with the buffer test. […] The inhibition constants, which represent the mean from at least three different determinations, were obtained by the non-linear least-squares methods using PRISM 6 and the Cheng–Prusoff equation, as reported earlier [50]. […] All salts/small molecules were of the highest purity available from Sigma-Aldrich (Milan, Italy).

The target of another assay is MreCA. Also on record: method as in PMID 31963335. The note with it: stopped-flow CO2 hydration; given for comparison; ref [26]; cited from earlier work.

Usually Ki stands for a measure of affinity in units of concentration, obtained from inhibition or displacement.

Where only a bound is given, the exact number is not on record here.

For `CCN[C@H]1CN(CCCOC)S(=O)(=O)c2sc(S(N)(=O)=O)cc21` [BRZ, Brinzolamide, reference compound], the Ki at MgCA was above 10 µM; in assay [1], 0.55 µM; at MreCA, 0.7 µM.
For the molecule `NS(=O)(=O)c1ccc(CO)cc1` [compound 16], the Ki at MgCA was 0.1 µM; in assay [1] it was 1.06 µM; on MreCA, 6.51 µM.
Regarding `CCN1CCCC1CNC(=O)c1cc(S(N)(=O)=O)ccc1OC` (stereo not drawn) [SLP, Sulpiride, reference compound], the Ki at MreCA was 4.85 µM.
In the case of `NS(=O)(=O)c1ccc(O)cc1` [compound 15], the Ki at MgCA is 0.23 µM; in assay [1], 0.61 µM; on MreCA, above 10 µM.
On to `Nc1ccc(S(N)(=O)=O)cc1` [compound 2], for which the inhibition constant Ki at MgCA is 0.24 µM; on MreCA, 4.62 µM.
Take `Nc1ccc(S(N)(=O)=O)cc1F` [compound 7]: the figures for the Ki (on MgCA; in assay [1]; on MreCA) were 0.11 µM, 2.48 µM and 4.59 µM, respectively.
With `NS(=O)(=O)NCCNc1nonc1C(=NO)Nc1ccc(F)c(Br)c1` [EPA, Epacadostat, reference compound], the Ki in assay [1] was 0.63 µM.
Turning to `Nc1ccc(S(=O)(=O)Nc2nnc(S(N)(=O)=O)s2)cc1` [compound 20], the Ki on MgCA was 0.23 µM; in assay [1], 0.61 µM; at MreCA it was 0.91 µM.
Consider `NS(=O)(=O)c1cc(Cl)cc(Cl)c1O` [compound 10], for which the Ki on MgCA was 0.54 µM; in assay [1], 2.01 µM; at MreCA, above 10 µM.
As to `NCCc1ccc(S(N)(=O)=O)cc1` [compound 6], the Ki at MreCA is above 10 µM.
As for `Nc1cc(Cl)c(S(N)(=O)=O)cc1S(N)(=O)=O` [compound 12], the results for the Ki (in assay [1]; at MreCA) were 2.74 µM and above 10 µM, respectively.
Consider `Nc1nccc(Nc2ccc(S(N)(=O)=O)cc2)n1` [compound 19], for which the Ki was above 10 µM on MgCA, 0.59 µM in assay [1] and 7.79 µM on MreCA.
For `CC(=O)/N=c1/sc(S(N)(=O)=O)nn1C` [MZA, Methazolamide, reference compound], the Ki in assay [1] was determined as 1.72 µM.
Take `Nc1cccc(S(N)(=O)=O)c1` [compound 1]: the Ki in assay [1] came out at 1.99 µM.
Consider `NCc1ccc(S(N)(=O)=O)cc1` [compound 5], for which the Ki in assay [1] was 2.18 µM; on MreCA, above 10 µM.
Turning to `NS(=O)(=O)c1ccc(CCNS(=O)(=O)c2ccc([N+](=O)[O-])cc2CO)cc1` [compound 21], the figures for the inhibitory constant (Ki) (on MgCA; in assay [1]; on MreCA) were 0.11 µM, 0.27 µM and 7.4 µM, respectively.
On to `Nc1ccc(S(=O)(=O)Nc2ccc(S(N)(=O)=O)cc2)cc1` [compound 22], for which the values for the Ki (on MgCA; in assay [1]; on MreCA) were 0.09 µM, 1.37 µM and 3.74 µM, respectively.
For the molecule `NS(=O)(=O)c1cccc(S(N)(=O)=O)c1` [compound 3], the Ki was 0.15 µM at MgCA, 1.5 µM in assay [1] and above 10 µM on MreCA.
Turning to `NC(N)=Nc1nc(CSCCC(N)=NS(N)(=O)=O)cs1` [FAM, Famotidine, reference compound], the Ki in assay [1] came out at 4.91 µM.
For the molecule `NS(=O)(=O)c1nnc(NS(=O)(=O)c2ccccc2)s1` [BZA, Benzolamide, reference compound], the values for the Ki (in assay [1]; on MreCA) were 0.12 µM and 7.15 µM, respectively.
On to `Cn1nc(S(N)(=O)=O)sc1=N` [compound 14], for which the Ki on MgCA is above 10 µM; in assay [1] it was 0.58 µM; on MreCA, above 10 µM.
As for `Nc1ccc(S(=O)(=O)NCCc2ccc(S(N)(=O)=O)cc2)cc1` [compound 24], the Ki in assay [1] was determined as 1.27 µM.
Consider `Nc1ccc(S(=O)(=O)NCc2ccc(S(N)(=O)=O)cc2)cc1` [compound 23], for which the values for the Ki (at MgCA; in assay [1]; on MreCA) were above 10 µM, 0.26 µM and above 10 µM, respectively.
Regarding `NS(=O)(=O)c1ccc(CCO)cc1` [compound 17], the Ki at MgCA is 0.06 µM; on MreCA, above 10 µM.
For the molecule `Nc1cc(C(F)(F)F)c(S(N)(=O)=O)cc1S(N)(=O)=O` [compound 11], on MreCA, the Ki is 6.76 µM.
For the molecule `Cc1ccc(S(N)(=O)=O)cc1` [compound 4], the Ki in assay [1] was determined as 1.09 µM.
On to `Nc1nnc(S(N)(=O)=O)s1` [compound 13], for which the Ki in assay [1] turned out to be 1.09 µM.
For `NS(=O)(=O)c1cc2c(cc1Cl)NCNS2(=O)=O` [HCT, Hydrochlorothiazide, reference compound], the results for the inhibitory constant (Ki) (in assay [1]; on MreCA) were 0.26 µM and 8.5 µM, respectively.
As to `Nc1ccc(S(N)(=O)=O)cc1Cl` [compound 8], the Ki at MgCA was 0.12 µM; in assay [1], 1.68 µM; on MreCA, above 10 µM.
Take `NS(=O)(=O)c1cc(Cl)c(Cl)c(S(N)(=O)=O)c1` [DCP, Dichlorophenamide, reference compound]: the Ki on MgCA is 0.34 µM; at MreCA, 3.06 µM.
Consider `NS(=O)(=O)c1ccc(C(=O)O)cc1` [compound 18], for which the Ki is 0.06 µM on MgCA and above 10 µM at MreCA.
For `Nc1ccc(S(N)(=O)=O)cc1Br` [compound 9], the results for the Ki at MgCA and on MreCA were 0.34 µM and above 10 µM, respectively.
Turning to `Cc1onc(-c2ccccc2)c1-c1ccc(S(N)(=O)=O)cc1` [VLX, Valdecoxib, reference compound], the results for the Ki (in assay [1]; on MreCA) were 0.63 µM and 0.77 µM, respectively.
As for `NS(=O)(=O)c1ccc(N2CCCCS2(=O)=O)cc1` [SLT, Sulthiame, reference compound], the Ki was 1.88 µM in assay [1] and 0.67 µM at MreCA.
`O=C1NS(=O)(=O)c2ccccc21` [SAC, Saccharin, reference compound]: the Ki in assay [1] was 1.03 µM.
Turning to `CC1(C)O[C@@H]2[C@@H](CO[C@@]3(COS(N)(=O)=O)OC(C)(C)O[C@@H]23)O1` [TPM, Topiramate, reference compound], the Ki at MgCA was 1.46 µM; in assay [1], 0.48 µM; at MreCA, 3.83 µM.
Turning to `NS(=O)(=O)Cc1noc2ccccc12` [ZNS, Zonisamide, reference compound], the Ki in assay [1] is 2.42 µM.
In the case of `Cc1ccc(-c2cc(C(F)(F)F)nn2-c2ccc(S(N)(=O)=O)cc2)cc1` [CLX, Celecoxib, reference compound], the Ki on MgCA is above 10 µM; in assay [1] it was 0.06 µM; on MreCA, 1.4 µM.
In the case of `NS(=O)(=O)c1ccc(S(=O)(=O)Nc2cccc3c(Cl)c[nH]c23)cc1` [IND, Indisulam E7070, reference compound], the Ki in assay [1] was 4.82 µM; on MreCA, below 1 µM.
